Experimental data: patent publication US20020137929A1, “1 - (3-heterocyclylphenyl) isothiourea, -isourea, -guanidine and -amidine herbicidal agents” (Intellectual Property Department, BASF Aktiengesellschaft, priority 1998, published 2002)

Assays:
CYPSE (Flatsedge) = assay: Preemergence weed control under flooded paddy conditions; format: in vivo, Cyperus serotinus; conditions: rated 3-4 weeks after treatment
Procedure, shortened: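 Silt loam, seeds in top 0.5 cm; flood held 1.5-3 cm; test cpd as acetone/water 50/50 into flood water, ~0.0313-0.500 kg/ha a.i.; greenhouse 3-4 wk; visual 0-9 score vs control.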

ABUTH (Velvetleaf) = assay: Postemergence herbicidal evaluation; format: in vivo, Abutilon theophrasti; conditions: postemergence
Procedure, shortened: (§1)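 Two-week-old seedlings sprayed with compound in 50/50 acetone/water plus 0.5% TWEEN 20, at about 0.0156 to 0.500 kg/ha, nozzle at 40 psi. Kept in greenhouse; rated visually 4-5 weeks after treatment on a 0-9 scale versus control, repeat tests averaged.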

[1] = tested on: CHEAL (Lambsquarters, Common); assay: Preemergence herbicidal evaluation; format: in vivo, Chenopodium album; conditions: rated 4-5 weeks after treatment
Procedure, shortened: (§2)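 In this greenhouse assay, monocot and dicot seeds are planted in soil and treated prior to emergence with an aqueous acetone spray (about 0.0156-0.500 kg/ha). Plants are assessed visually against control on a 0-9 scale after 4-5 weeks.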

AMBEL (Ragweed, Common) [2] = assay: Postemergence herbicidal evaluation; format: in vivo, Ambrosia artemisifolia; conditions: postemergence
Procedure, shortened: as §1

ORYSAT (Rice, Tebonnet) = assay: Postemergence herbicidal evaluation; format: in vivo, Oryza sativa, (L.) Tebonnet; conditions: postemergence
Procedure, shortened: as §1

[3] = tested on: GLXMAW (Soybean, Williams); assay: Postemergence herbicidal evaluation; format: in vivo, Glycine max, (L.) Merr. cv Williams; conditions: postemergence
Procedure, shortened: as §1

ZEAMX (Corn, Field) = assay: Postemergence herbicidal evaluation; format: in vivo, Zea mays; conditions: postemergence
Procedure, shortened: as §1

[4] = tested on: CHEAL (Lambsquarters, Common); assay: Postemergence herbicidal evaluation; format: in vivo, Chenopodium album; conditions: postemergence
Procedure, shortened: as §1

GALAP (Galium) = assay: Preemergence herbicidal evaluation; format: in vivo, Galium aparine; conditions: rated 4-5 weeks after treatment
Procedure, shortened: as §2

AMBEL (Ragweed, Common) [5] = assay: Preemergence herbicidal evaluation; format: in vivo, Ambrosia artemisifolia; conditions: rated 4-5 weeks after treatment
Procedure, shortened: as §2

CASOB (Sicklepod) = assay: Preemergence herbicidal evaluation; format: in vivo, Cassia obtusifolia; conditions: rated 4-5 weeks after treatment
Procedure, shortened: as §2

ECHCG (Barnyardgrass) = assay: Postemergence herbicidal evaluation; format: in vivo, Echinochloa crus-galli; conditions: postemergence
Procedure, shortened: as §1

[6] = rate 0.1250 kg/ha, rating scale 0-9
[7] = rate 0.2500 kg/ha, rating scale 0-9

CCOC(=O)CN1C(=O)C(Br)SC1=Nc1cc(-n2c(=O)cc(C(F)(F)F)n(C)c2=O)c(F)cc1Cl (centres unmarked) [Compound 153, Ethyl 5-bromo-2-[{2-chloro-5-[3,6-dihydro-3-methyl-2,6-dioxo-4-(trifluoromethyl)-1(2H)-pyrimidinyl]-4-fluorophenyl}imino}-4-oxo-3-thiazolidineacetate]
0.0: herbicidal effect rating, CYPSE (CYPSE (Flatsedge); 0.0625 kg/ha) | herbicidal effect rating, CYPSE (CYPSE (Flatsedge); 0.1250 kg/ha) | herbicidal effect rating, CYPSE (CYPSE (Flatsedge); 0.2500 kg/ha) | Herbicidal rating AMBEL (AMBEL (Ragweed, Common) [2]; rate 0.0156 kg/ha) | Herbicidal rating CHEAL ([4]; rate 0.0156 kg/ha) | Preemergence herbicidal rating GALAP (GALAP (Galium); [6]) | Preemergence herbicidal rating AMBEL (AMBEL (Ragweed, Common) [5]; [6]) | Preemergence herbicidal rating CASOB (CASOB (Sicklepod); [6]) | Preemergence herbicidal rating CASOB (CASOB (Sicklepod); [7]) | Herbicidal rating ECHCG (ECHCG (Barnyardgrass); rate 0.0156 kg/ha) | Herbicidal rating ECHCG (ECHCG (Barnyardgrass); rate 0.0313 kg/ha)
1.5: Herbicidal rating ORYSAT (ORYSAT (Rice, Tebonnet); rate 0.0156 kg/ha) | Herbicidal rating ORYSAT (ORYSAT (Rice, Tebonnet); rate 0.0313 kg/ha) | Herbicidal rating ORYSAT (ORYSAT (Rice, Tebonnet); rate 0.0625 kg/ha)
3.5: Herbicidal rating GLXMAW ([3]; rate 0.0156 kg/ha) | Herbicidal rating ZEAMX (ZEAMX (Corn, Field); rate 0.0313 kg/ha)
4.5: Herbicidal rating ZEAMX (ZEAMX (Corn, Field); rate 0.0625 kg/ha)
4.0: Herbicidal rating GLXMAW ([3]; rate 0.0313 kg/ha) | Herbicidal rating GLXMAW ([3]; rate 0.0625 kg/ha)
1.0: Herbicidal rating ABUTH (ABUTH (Velvetleaf); rate 0.0156 kg/ha) | Herbicidal rating ABUTH (ABUTH (Velvetleaf); rate 0.0313 kg/ha) | Preemergence herbicidal rating CHEAL [1, 6] | Herbicidal rating AMBEL (AMBEL (Ragweed, Common) [2]; rate 0.0313 kg/ha) | Herbicidal rating AMBEL (AMBEL (Ragweed, Common) [2]; rate 0.0625 kg/ha) | Herbicidal rating CHEAL ([4]; rate 0.0313 kg/ha) | Herbicidal rating CHEAL ([4]; rate 0.0625 kg/ha) | Preemergence herbicidal rating GALAP (GALAP (Galium); [7]) | Preemergence herbicidal rating AMBEL (AMBEL (Ragweed, Common) [5]; [7]) | Herbicidal rating ECHCG (ECHCG (Barnyardgrass); rate 0.0625 kg/ha)
5.0: Herbicidal rating ABUTH (ABUTH (Velvetleaf); rate 0.0625 kg/ha)
7.0: Preemergence herbicidal rating CHEAL [1, 7]
3.0: Herbicidal rating ZEAMX (ZEAMX (Corn, Field); rate 0.0156 kg/ha)

CC(C)OC(=O)CN1C(=O)CSC1=Nc1cc(-n2c(=O)cc(C(F)(F)F)n(C)c2=O)c(F)cc1Cl [Compound 110]
9.0: Herbicidal rating ABUTH (ABUTH (Velvetleaf); rate 0.0158 kg/ha) | Herbicidal rating ABUTH (ABUTH (Velvetleaf); rate 0.0315 kg/ha) | Herbicidal rating ABUTH (ABUTH (Velvetleaf); rate 0.0630 kg/ha) | Preemergence herbicidal rating CHEAL ([1]; rate 0.0313 kg/ha) | Preemergence herbicidal rating CHEAL ([1]; rate 0.0625 kg/ha) | Preemergence herbicidal rating CHEAL ([1]; rate 0.1250 kg/ha) | Preemergence herbicidal rating CHEAL ([1]; rate 0.2500 kg/ha) | Preemergence herbicidal rating CHEAL ([1]; rate 0.5000 kg/ha) | Herbicidal rating AMBEL (AMBEL (Ragweed, Common) [2]; rate 0.0630 kg/ha) | Herbicidal rating CHEAL ([4]; rate 0.0158 kg/ha) | Herbicidal rating CHEAL ([4]; rate 0.0315 kg/ha) | Herbicidal rating CHEAL ([4]; rate 0.0630 kg/ha) | Preemergence herbicidal rating AMBEL (AMBEL (Ragweed, Common) [5]; rate 0.5000 kg/ha) | Preemergence herbicidal rating CASOB (CASOB (Sicklepod); rate 0.5000 kg/ha)
5.0: Herbicidal rating AMBEL (AMBEL (Ragweed, Common) [2]; rate 0.0158 kg/ha) | Herbicidal rating GLXMAW ([3]; rate 0.0158 kg/ha) | Herbicidal rating ZEAMX (ZEAMX (Corn, Field); rate 0.0158 kg/ha) | Preemergence herbicidal rating CASOB (CASOB (Sicklepod); rate 0.2500 kg/ha) | Herbicidal rating ECHCG (ECHCG (Barnyardgrass); rate 0.0315 kg/ha)
2.0: Preemergence herbicidal rating GALAP (GALAP (Galium); rate 0.2500 kg/ha) | Preemergence herbicidal rating CASOB (CASOB (Sicklepod); rate 0.1250 kg/ha)
4.0: Herbicidal rating AMBEL (AMBEL (Ragweed, Common) [2]; rate 0.0315 kg/ha) | Herbicidal rating ECHCG (ECHCG (Barnyardgrass); rate 0.0630 kg/ha)
3.5: Herbicidal rating ORYSAT (ORYSAT (Rice, Tebonnet); rate 0.0315 kg/ha) | Herbicidal rating ORYSAT (ORYSAT (Rice, Tebonnet); rate 0.0630 kg/ha) | Preemergence herbicidal rating AMBEL (AMBEL (Ragweed, Common) [5]; rate 0.0625 kg/ha)
4.5: Preemergence herbicidal rating AMBEL (AMBEL (Ragweed, Common) [5]; rate 0.1250 kg/ha)
7.0: Herbicidal rating ZEAMX (ZEAMX (Corn, Field); rate 0.0630 kg/ha)
1.0: Preemergence herbicidal rating AMBEL (AMBEL (Ragweed, Common) [5]; rate 0.0156 kg/ha) | Herbicidal rating ECHCG (ECHCG (Barnyardgrass); rate 0.0158 kg/ha)
6.5: Herbicidal rating GLXMAW ([3]; rate 0.0315 kg/ha) | Herbicidal rating GLXMAW ([3]; rate 0.0630 kg/ha) | Herbicidal rating ZEAMX (ZEAMX (Corn, Field); rate 0.0315 kg/ha) | Preemergence herbicidal rating AMBEL (AMBEL (Ragweed, Common) [5]; rate 0.2500 kg/ha)
8.0: Preemergence herbicidal rating CHEAL ([1]; rate 0.0156 kg/ha)
2.5: Herbicidal rating ORYSAT (ORYSAT (Rice, Tebonnet); rate 0.0158 kg/ha) | Preemergence herbicidal rating AMBEL (AMBEL (Ragweed, Common) [5]; rate 0.0313 kg/ha)
0.0: CYPSE herbicidal effect rating (CYPSE (Flatsedge); 0.0313 kg/ha) | CYPSE herbicidal effect rating (CYPSE (Flatsedge); 0.0625 kg/ha) | CYPSE herbicidal effect rating (CYPSE (Flatsedge); 0.1250 kg/ha) | CYPSE herbicidal effect rating (CYPSE (Flatsedge); 0.2500 kg/ha) | Preemergence herbicidal rating GALAP (GALAP (Galium); rate 0.0156 kg/ha) | Preemergence herbicidal rating GALAP (GALAP (Galium); rate 0.0313 kg/ha) | Preemergence herbicidal rating GALAP (GALAP (Galium); rate 0.0625 kg/ha) | Preemergence herbicidal rating GALAP (GALAP (Galium); rate 0.1250 kg/ha) | Preemergence herbicidal rating CASOB (CASOB (Sicklepod); rate 0.0156 kg/ha) | Preemergence herbicidal rating CASOB (CASOB (Sicklepod); rate 0.0313 kg/ha) | Preemergence herbicidal rating CASOB (CASOB (Sicklepod); rate 0.0625 kg/ha)
